# From US20070254859A1 (priority 2006, published 2007)
# Experiments:
# Caco-2 cells = conditions: compound 30 μM on both sides, Rhodamine 123 10 μM, Bl-Ap direction, Caco-2 monolayers; read from FIG. 2
# in vivo = conditions: male, Wistar-Hannover, rat, plasma, po, 12 mg/kg
# Experimental: Male, Wistar-Hannover rats (257-313 g) were used; animals were cannulated in the jugular vein for blood sampling. Animals were individually housed at 18-26° C. with 30-70% humidity. Animals were allowed free movement and access to water with 12 h dark and light cycles. Dosing was 2-4 h after the beginning of a light cycle and dosing time across each group was consistent. All animals had access to water, ad libitum, and were fasted 8 h prior to dosing; food was returned 5 h post-dose. Animals were dosed using a 1 mL syringe. Group 1, the intravenous group (raloxifene, 2.5 mg/kg), was dosed using an infusion rate of ˜0.3 mL per minute.
# Sampling—using an AccuSampler®, blood samples (˜120 μL) were collected from 4 animals/group/time point from a catheter inserted into the jugular vein. Blood samples were taken and removed blood volume was replaced by an equivalent volume of intraperitoneal saline after each draw. Blood samples were centrifuged and plasma transferred into a designated well of a 96-well plate. Samples were kept frozen (−80±10° C.) until sample preparation and HPLC/MS/MS analysis.
# Internal standard (IS) solution was prepared in a 500 mL volumetric flask containing 1:1 v/v acetonitrile:methanol and ˜0.04 μM of saquinavir base. Individually, the 96-well plates were removed from the freezer (−80±10° C.) and allowed to warm to ambient temperature (˜45-50 min). The in vivo plasma samples, either 25 or 50 μL, were transferred into separate 1.5 mL micro-centrifuge tubes. Total plasma volume was brought to ˜100 μL by adding male Wistar-Hannover plasma (potassium EDTA). Subsequently, 200 μL of IS solution was added, capped, mixed (˜5 sec) and centrifuged at 13,200 rpm for 10 mm using an Eppendorf minispin centrifuge. The supernatant (˜250 μL) was transferred into individual wells of a 96-well plate. The 96-well plate was sealed and centrifuged at 3000 rpm for 10 min at 10° C. […] The 96-well plate was then placed into the auto-sampler cool-stack (˜6° C.) and analyzed via LC/MS/MS. Raloxifene, and raloxifene glucuronide standard curves and quality control (QC's) samples were prepared in an analogous way as described above. […] The limit of detection (LOD) for raloxifene was ˜0.2 ng/mL while the glucuronides were ˜0.1 ng/mL.
AUC(0-t) (in vivo) [ng·h/mL],Cmax (in vivo) [ng/mL],Tmax (in vivo) [h],bioavailability (in vivo) [%],Molecule,RHO in vitro efflux inhibition (Caco-2 cells) [%]
,,,,d-α-tocopheryl polyethylene glycol succinate [TPGS 1000],~40
452,50 to 60,~4,3.6 ± 0.8,O=C(c1ccc(OCCN2CCCCC2)cc1)c1c(-c2ccc(O)cc2)sc2cc(O)ccc12 [raloxifene],
